According to ChEMBL document CHEMBL5316328, “Discovery of AXL Degraders with Improved Potencies in Triple-Negative Breast Cancer (TNBC) Cells” (J Med Chem, 2023):
pIC50: −log10 of the molar value. Activity calls are given as the source filed them. The calls are words filed in the database; no cut-off is given here.

What was measured:
[1] = species: Homo sapiens; experiment: Antitumor activity against patient-derived breast cancer organoid assessed as phenotypic change at 5 uM incubated for 120 hrs by bright-field imaging microscopic analysis; assay type: functional, tissue-based
[2] = Antitumor activity against patient-derived breast cancer organoid assessed as reduction in cell viability incubated for 120 hrs by CellTiter-Glo 3D assay; assay type: functional, tissue-based; conditions: Homo sapiens
[3] = tested on: MDA-MB-231; experiment: Antiproliferative activity against human MDA-MB-231 cells expressing AXL assessed as inhibition of cell growth incubated for 72 hrs by CCK8 assay; assay type: functional, cell-based; conditions: MDA-MB-231, 72 h
[4] = tested on: MDA-MB-436; experiment: Antiproliferative activity against human MDA-MB-436 cells expressing AXL assessed as inhibition of cell growth incubated for 72 hrs by CCK8 assay; assay type: functional, cell-based; conditions: MDA-MB-436, 72 h
[5] = tested on: MDA-MB-453; experiment: Antiproliferative activity against human MDA-MB-453 cells assessed as inhibition of cell growth incubated for 72 hrs by CCK8 assay; assay type: functional, cell-based; conditions: MDA-MB-453, 72 h
[6] = molecular target: ALK tyrosine kinase receptor (Homo sapiens, UniProt Q9UM73); experiment: Inhibition of ALK (unknown origin)
ALK tyrosine kinase receptor, sequence (Q9UM73 whole entry): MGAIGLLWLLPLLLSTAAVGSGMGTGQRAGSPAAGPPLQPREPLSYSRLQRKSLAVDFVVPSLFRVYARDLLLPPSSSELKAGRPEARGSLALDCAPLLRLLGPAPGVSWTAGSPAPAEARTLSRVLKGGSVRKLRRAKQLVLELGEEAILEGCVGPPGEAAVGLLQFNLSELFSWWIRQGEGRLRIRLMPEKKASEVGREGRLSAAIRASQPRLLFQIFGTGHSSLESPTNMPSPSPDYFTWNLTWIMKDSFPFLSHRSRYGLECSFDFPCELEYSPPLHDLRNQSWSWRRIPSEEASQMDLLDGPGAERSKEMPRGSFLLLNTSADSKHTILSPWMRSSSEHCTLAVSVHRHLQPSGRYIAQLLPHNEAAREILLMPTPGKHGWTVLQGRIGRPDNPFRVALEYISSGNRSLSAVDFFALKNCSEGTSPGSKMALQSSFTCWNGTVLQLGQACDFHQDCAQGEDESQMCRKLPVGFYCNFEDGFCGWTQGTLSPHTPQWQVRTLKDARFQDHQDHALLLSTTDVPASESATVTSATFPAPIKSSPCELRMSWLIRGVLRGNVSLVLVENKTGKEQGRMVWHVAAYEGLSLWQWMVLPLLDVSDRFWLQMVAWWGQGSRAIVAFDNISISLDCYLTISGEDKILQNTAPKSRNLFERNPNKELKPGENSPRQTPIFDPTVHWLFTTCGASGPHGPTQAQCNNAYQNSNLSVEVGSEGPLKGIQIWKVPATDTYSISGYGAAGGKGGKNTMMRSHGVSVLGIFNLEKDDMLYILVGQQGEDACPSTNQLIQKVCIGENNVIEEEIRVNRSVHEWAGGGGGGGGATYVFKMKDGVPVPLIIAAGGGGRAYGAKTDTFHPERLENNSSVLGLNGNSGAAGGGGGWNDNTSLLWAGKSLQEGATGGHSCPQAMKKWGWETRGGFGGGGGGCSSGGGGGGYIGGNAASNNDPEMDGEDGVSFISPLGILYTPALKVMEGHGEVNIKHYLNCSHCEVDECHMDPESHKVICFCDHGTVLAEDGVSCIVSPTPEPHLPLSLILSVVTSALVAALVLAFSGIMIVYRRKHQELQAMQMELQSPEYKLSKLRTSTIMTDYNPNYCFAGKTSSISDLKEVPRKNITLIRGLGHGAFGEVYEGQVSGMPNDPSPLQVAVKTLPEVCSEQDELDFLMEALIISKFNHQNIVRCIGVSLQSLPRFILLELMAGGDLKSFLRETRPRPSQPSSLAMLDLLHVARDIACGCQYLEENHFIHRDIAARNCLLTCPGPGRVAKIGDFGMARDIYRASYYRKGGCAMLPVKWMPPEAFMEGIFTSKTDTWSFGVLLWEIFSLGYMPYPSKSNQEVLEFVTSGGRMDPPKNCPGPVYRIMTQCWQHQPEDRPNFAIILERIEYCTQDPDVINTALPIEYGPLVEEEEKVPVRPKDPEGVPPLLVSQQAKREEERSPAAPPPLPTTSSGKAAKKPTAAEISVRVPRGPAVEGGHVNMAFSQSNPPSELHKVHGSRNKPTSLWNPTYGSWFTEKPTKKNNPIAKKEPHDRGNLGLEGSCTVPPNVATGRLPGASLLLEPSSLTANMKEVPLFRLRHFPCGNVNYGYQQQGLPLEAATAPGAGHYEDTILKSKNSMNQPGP

[7] = tested on: MDA-MB-231; experiment: Induction of cell cycle arrest in human MDA-MB-231 cells assessed as G0/G1 phase cells at 33.3 nM incubated for 24 hrs by PI staining based flow cytometric analysis (reference value: 63.32 to 64.94%); assay type: functional
[8] = tested on: MDA-MB-231; experiment: Induction of cell cycle arrest in human MDA-MB-231 cells assessed as S phase cells at 33.3 nM incubated for 24 hrs by PI staining based flow cytometric analysis (reference value: 9.64 to 10.79%); assay type: functional
[9] = tested on: MDA-MB-231; experiment: Induction of cell cycle arrest in human MDA-MB-231 cells assessed as accumulation of cell at G2/M phase at 33.3 nM incubated for 24 hrs by PI staining based flow cytometric analysis (reference value: 24.34 to 24.44%); assay type: functional
[10] = tested on: MDA-MB-231; experiment: Induction of cell cycle arrest in human MDA-MB-231 cells assessed as G0/G1 phase cells at 100 nM incubated for 24 hrs by PI staining based flow cytometric analysis (reference value: 63.32 to 64.94%); assay type: functional
[11] = tested on: MDA-MB-231; experiment: Induction of cell cycle arrest in human MDA-MB-231 cells assessed as S phase cells at 100 nM incubated for 24 hrs by PI staining based flow cytometric analysis (reference value: 9.64 to 10.79%); assay type: functional
[12] = tested on: MDA-MB-231; experiment: Induction of cell cycle arrest in human MDA-MB-231 cells assessed as accumulation of cell at G2/M phase at 100 nM incubated for 24 hrs by PI staining based flow cytometric analysis (reference value: 24.34 to 24.44%); assay type: functional
[13] = tested on: MDA-MB-231; experiment: Induction of cell cycle arrest in human MDA-MB-231 cells assessed as G0/G1 phase cells at 300 nM incubated for 24 hrs by PI staining based flow cytometric analysis (reference value: 63.32 to 64.94%); assay type: functional
[14] = tested on: MDA-MB-231; experiment: Induction of cell cycle arrest in human MDA-MB-231 cells assessed as S phase cells at 300 nM incubated for 24 hrs by PI staining based flow cytometric analysis (reference value: 9.64 to 10.79%); assay type: functional
[15] = tested on: MDA-MB-231; experiment: Induction of cell cycle arrest in human MDA-MB-231 cells assessed as accumulation of cell at G2/M phase at 300 nM incubated for 24 hrs by PI staining based flow cytometric analysis (reference value: 24.34 to 24.44%); assay type: functional
[16] = molecular target: Serine/threonine-protein kinase AKT (Homo sapiens) (UniProt P31751+Q9Y243+P31749); experiment: Inhibition of AKT phosphorylation in human MDA-MB-231 at 1.2 to 100 nM incubated for 18 hrs by Western blot analysis; assay type: cell-based; conditions: dose 1.2-100 nM
Serine/threonine-protein kinase AKT (Homo sapiens), sequence (P31749 whole entry, looked up): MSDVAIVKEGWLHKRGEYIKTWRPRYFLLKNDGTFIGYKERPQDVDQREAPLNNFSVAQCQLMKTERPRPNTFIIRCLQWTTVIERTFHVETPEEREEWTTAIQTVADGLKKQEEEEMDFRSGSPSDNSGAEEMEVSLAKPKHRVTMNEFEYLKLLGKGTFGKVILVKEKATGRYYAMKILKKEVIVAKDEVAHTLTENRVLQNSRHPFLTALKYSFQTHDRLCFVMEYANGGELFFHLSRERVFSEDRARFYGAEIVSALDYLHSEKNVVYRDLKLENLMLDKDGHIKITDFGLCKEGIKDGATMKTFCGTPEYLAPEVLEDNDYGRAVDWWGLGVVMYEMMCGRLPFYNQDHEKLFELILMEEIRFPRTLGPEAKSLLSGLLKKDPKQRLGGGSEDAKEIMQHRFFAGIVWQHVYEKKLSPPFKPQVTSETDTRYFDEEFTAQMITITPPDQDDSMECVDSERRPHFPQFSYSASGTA
Serine/threonine-protein kinase AKT (Homo sapiens), sequence (P31751 whole entry, looked up): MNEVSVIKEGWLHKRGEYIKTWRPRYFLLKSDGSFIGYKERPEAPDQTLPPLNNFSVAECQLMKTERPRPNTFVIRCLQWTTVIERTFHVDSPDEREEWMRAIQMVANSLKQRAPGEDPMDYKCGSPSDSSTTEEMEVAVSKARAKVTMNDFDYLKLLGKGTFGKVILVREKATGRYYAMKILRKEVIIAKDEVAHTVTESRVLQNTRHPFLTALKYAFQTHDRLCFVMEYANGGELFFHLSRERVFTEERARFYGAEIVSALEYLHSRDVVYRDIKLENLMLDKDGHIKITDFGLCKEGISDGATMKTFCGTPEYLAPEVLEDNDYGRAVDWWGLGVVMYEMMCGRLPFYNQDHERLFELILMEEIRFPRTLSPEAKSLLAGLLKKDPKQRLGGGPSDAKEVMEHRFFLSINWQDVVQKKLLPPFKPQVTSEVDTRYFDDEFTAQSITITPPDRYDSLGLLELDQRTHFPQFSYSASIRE
Serine/threonine-protein kinase AKT (Homo sapiens), sequence (Q9Y243 whole entry, looked up): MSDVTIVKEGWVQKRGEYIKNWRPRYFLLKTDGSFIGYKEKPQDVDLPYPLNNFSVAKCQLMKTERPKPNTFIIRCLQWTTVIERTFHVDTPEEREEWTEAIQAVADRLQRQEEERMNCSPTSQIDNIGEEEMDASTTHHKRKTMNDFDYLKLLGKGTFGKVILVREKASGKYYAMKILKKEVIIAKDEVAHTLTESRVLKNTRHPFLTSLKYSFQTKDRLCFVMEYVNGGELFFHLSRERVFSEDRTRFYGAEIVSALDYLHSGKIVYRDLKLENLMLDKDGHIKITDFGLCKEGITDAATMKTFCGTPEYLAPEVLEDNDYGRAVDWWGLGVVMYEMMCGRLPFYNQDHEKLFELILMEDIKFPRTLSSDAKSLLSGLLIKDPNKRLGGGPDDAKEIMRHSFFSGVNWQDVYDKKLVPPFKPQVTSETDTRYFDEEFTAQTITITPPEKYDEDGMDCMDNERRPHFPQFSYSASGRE

[17] = tested on: MDA-MB-231; experiment: Induction of apoptosis in human MDA-MB-231 cells assessed as viable cells at 33.3 nM incubated for 48 hrs by Annexin V-PE staining based flow cytometric analysis (reference value: 92.59 to 92.71%); assay type: functional; conditions: read-out: Activity
[18] = tested on: MDA-MB-231; experiment: Induction of apoptosis in human MDA-MB-231 cells assessed as necrotic cells at 33.3 nM incubated for 48 hrs by Annexin V-PE staining based flow cytometric analysis (reference value: 2.64 to 3.23%); assay type: functional
[19] = tested on: MDA-MB-231; experiment: Induction of apoptosis in human MDA-MB-231 cells assessed as early apoptotic cells at 33.3 nM incubated for 48 hrs by Annexin V-PE staining based flow cytometric analysis (reference value: 3.95 to 3.74%); assay type: functional
[20] = tested on: MDA-MB-231; experiment: Induction of apoptosis in human MDA-MB-231 cells assessed as late apoptotic cells at 33.3 nM incubated for 48 hrs by Annexin V-PE staining based flow cytometric analysis (reference value: 0.32 to 0.82%); assay type: functional
[21] = tested on: MDA-MB-231; experiment: Induction of apoptosis in human MDA-MB-231 cells assessed as viable cells at 100 nM incubated for 48 hrs by Annexin V-PE staining based flow cytometric analysis (reference value: 92.59 to 92.71%); assay type: functional; conditions: read-out: Activity
[22] = tested on: MDA-MB-231; experiment: Induction of apoptosis in human MDA-MB-231 cells assessed as early apoptotic cells at 100 nM incubated for 48 hrs by Annexin V-PE staining based flow cytometric analysis (reference value: 3.95 to 3.74%); assay type: functional
[23] = tested on: MDA-MB-231; experiment: Induction of apoptosis in human MDA-MB-231 cells assessed as late apoptotic cells at 100 nM incubated for 48 hrs by Annexin V-PE staining based flow cytometric analysis (reference value: 0.32 to 0.82%); assay type: functional
[24] = tested on: MDA-MB-231; experiment: Induction of apoptosis in human MDA-MB-231 cells assessed as necrotic cells at 100 nM incubated for 48 hrs by Annexin V-PE staining based flow cytometric analysis (reference value: 2.64 to 3.23%); assay type: functional
[25] = tested on: MDA-MB-231; experiment: Induction of apoptosis in human MDA-MB-231 cells assessed as viable cells at 300 nM incubated for 48 hrs by Annexin V-PE staining based flow cytometric analysis (reference value: 92.59 to 92.71%); assay type: functional; conditions: read-out: Activity
[26] = tested on: MDA-MB-231; experiment: Induction of apoptosis in human MDA-MB-231 cells assessed as early apoptotic cells at 300 nM incubated for 48 hrs by Annexin V-PE staining based flow cytometric analysis (reference value: 3.95 to 3.74%); assay type: functional
[27] = tested on: MDA-MB-231; experiment: Induction of apoptosis in human MDA-MB-231 cells assessed as late apoptotic cells at 300 nM incubated for 48 hrs by Annexin V-PE staining based flow cytometric analysis (reference value: 0.32 to 0.82%); assay type: functional
[28] = tested on: MDA-MB-231; experiment: Induction of apoptosis in human MDA-MB-231 cells assessed as necrotic cells at 300 nM incubated for 48 hrs by Annexin V-PE staining based flow cytometric analysis (reference value: 2.64 to 3.23%); assay type: functional
[29] = tested on: MDA-MB-231; experiment: Induction of cell cycle arrest in human MDA-MB-231 cells assessed as decrease in CDK2 level at 100 to 300 nM by Western blot analysis; assay type: functional, cell-based; conditions: dose 100-300 nM
[30] = tested on: MDA-MB-231; experiment: Induction of cell cycle arrest in human MDA-MB-231 cells assessed as decrease in cyclin B1 level at 100 to 300 nM by Western blot analysis; assay type: functional, cell-based; conditions: dose 100-300 nM
[31] = tested on: MDA-MB-231; experiment: Induction of apoptosis in human MDA-MB-231 cells assessed as downregulation of caspase-9 expression at 100 to 300 nM by Western blot analysis; assay type: functional, cell-based; conditions: dose 100-300 nM
[32] = tested on: MDA-MB-231; experiment: Induction of apoptosis in human MDA-MB-231 cells assessed as upregulation of cleaved PARP expression at 100 to 300 nM by Western blot analysis; assay type: functional, cell-based; conditions: dose 100-300 nM
[33] = tested on: MDA-MB-231; experiment: Inhibition of migration in human MDA-MB-231 cells at 3.7 to 100 nM incubated for 18 hrs by transwell assay; assay type: functional, cell-based; conditions: dose 3.7-100 nM
[34] = tested on: MDA-MB-231; experiment: Inhibition of cell invasion in human MDA-MB-231 cells at 3.7 to 100 nM incubated for 18 hrs by transwell assay; assay type: functional, cell-based; conditions: dose 3.7-100 nM

With `CC(=O)O[C@H]1C(=O)[C@@]2(C)[C@H]([C@H](OC(=O)c3ccccc3)[C@]3(O)C[C@H](OC(=O)[C@H](O)[C@@H](NC(=O)c4ccccc4)c4ccccc4)C(C)=C1C3(C)C)[C@]1(OC(C)=O)CO[C@@H]1C[C@@H]2O` [PACLITAXEL] the Activity [1] was “inactive” and the pIC50 [2] was < 5.30.
With `CCc1ccc2c(c1)c(=O)c(C(=O)Nc1ccc(Oc3ncnc4cc(OC)c(OC)cc34)c(F)c1)c(C)n2C` the pIC50 [3] was < 5.30, the pIC50 [4] was < 5.30 and the pIC50 [5] was < 5.30. For the same compound, the pIC50 [6] was 8.31, the Activity [7] was 56.88% and the Activity [8] was 12.03%. It also gave an Activity [9] of 26.91%, an Activity [10] of 52.76% and an Activity [11] of 16.56%. For the same compound, the Activity [12] was 24.87%, the Activity [13] was 61.26% and the Activity [14] was 9.32%. For the same compound, the Activity [15] was 27.64%, the inhibition [16] was “inactive” and the viability at 0.0333 µM [17] was 94.9%. The Activity [18] was 1.8%, the Activity [19] was 3.01% and the Activity [20] was 0.29%. The viability at 0.1 µM [21] was 94.6%, the Activity [22] was 3.02% and the Activity [23] was 0.41%. The Activity [24] was 1.99%, the viability at 0.3 µM [25] was 95.1% and the Activity [26] was 3.11%. The Activity [27] was 0.15%, the Activity [28] was 1.66% and the Activity [29] was “inactive”. The Activity [30] was “inactive”, the Activity [31] was “inactive” and the Activity [32] was “inactive”. The inhibition [33] was “inactive” and the inhibition [34] was “Active”.
